Source: ChEMBL document CHEMBL1152277, “Lead optimization of 4-acetylamino-2-(3,5-dimethylpyrazol-1-yl)-6-pyridylpyrimidines as A2A adenosine receptor antagonists for the treatment of Parkinson's disease” (J Med Chem, 2008)
Converted amounts (≈) assume the structure as drawn. The source made the active and inactive calls. The rule behind the calls is not given here.

How the values were obtained:
Homo sapiens = species: Homo sapiens; assay: Selectivity ratio of Ki for human adenosine A1 receptor to Ki for human adenosine A2A receptor
Adenosine receptor A1 = target: T1, Adenosine receptor A1 (Homo sapiens, UniProt P30542); assay: Displacement of [3H]DPCPX from human adenosine A1 receptor expressed in HEK293 cells; format: cell-based
T1 sequence (P30542 whole entry): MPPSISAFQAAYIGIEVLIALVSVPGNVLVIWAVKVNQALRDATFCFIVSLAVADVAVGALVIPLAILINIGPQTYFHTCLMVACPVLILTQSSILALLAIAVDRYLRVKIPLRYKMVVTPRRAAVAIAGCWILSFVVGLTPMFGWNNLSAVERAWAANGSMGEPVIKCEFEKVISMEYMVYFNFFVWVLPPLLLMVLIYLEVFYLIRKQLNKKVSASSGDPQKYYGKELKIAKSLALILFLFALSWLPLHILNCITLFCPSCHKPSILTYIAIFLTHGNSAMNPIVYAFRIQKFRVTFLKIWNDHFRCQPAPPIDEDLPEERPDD

Cytochrome P450 3A4 [1] = target: T2, Cytochrome P450 3A4 (Homo sapiens, UniProt P08684)
Description: Inhibition of CYP3A4 in human liver microsomes by LC-MS/MS analysis

Adenosine receptor A2a [2] = target: T3, Adenosine receptor A2a (Homo sapiens, UniProt P29274); assay: Displacement of [3H][…] from human adenosine A2A receptor expressed in HEK293 cells; format: cell-based
[3] = Metabolic stability in rat liver microsomes assessed as intrinsic clearance by LC-MS/MS analysis; format: ADME, Microsome
[4] = Metabolic stability in human liver microsomes assessed as intrinsic clearance by LC-MS/MS analysis; format: ADME, Microsome
[5] = target: Voltage-gated inwardly rectifying potassium channel KCNH2 (Homo sapiens, UniProt Q12809); assay: Inhibition of human ERG by electrophysiology assay; conditions: human
[6] = Aqueous solubility in phosphate-buffered saline at pH 7.4; format: physicochemical
Adenosine receptor A2a [7] = target: Adenosine receptor A2a (Rattus norvegicus, UniProt P30543); assay: Displacement of [3H][…] from rat adenosine A2A receptor expressed in CHO cells; format: cell-based
Rattus norvegicus [8] = species: Rattus norvegicus; assay: Inhibition of haloperidol-induced catalepsy in rat assessed as minimal effective dose; format: functional; conditions: read-out: MED
[9] = Drug concentration in rat brain at 10 mg/kg, po after 2 hrs; format: ADME, organism-based; design: dose 10 mg/kg, route oral; conditions: read-out: Drug uptake
[10] = Plasma concentration in rat at 10 mg/kg, po after 2 hrs; format: ADME, organism-based; design: dose 10 mg/kg, route oral
[11] = Dissociation constant, pKa of the compound; format: physicochemical
Rattus norvegicus [12] = assay: Inhibition of haloperidol-induced catalepsy in rat at 10 mg/kg, po after 2 hrs; format: functional; design: scale not given: the % may be the effect or the level left
Adenosine receptor A2a [13] = target: T3, Adenosine receptor A2a; assay: Antagonist activity at human adenosine A2A receptor expressed in CHO cells assessed as inhibition of CGS-21680-induced cAMP production; format: functional, cell-based
Cytochrome P450 3A4 [14] = target: T2, Cytochrome P450 3A4; assay: Inhibition of recombinant CYP3A4-catalyzed dealkylation of BFC assessed as formation of 7HFC by microplate fluorescence technique; format: ADME; conditions: recombinant enzyme
[15] = Lipophilicity, log D at pH 7.4; format: physicochemical; conditions: buffer
[16] = Permeability from apical to basolateral side of the human Caco-2 membrane by LC-MS/MS analysis; format: ADME, cell-based; conditions: read-out: permeability
Rattus norvegicus [17] = assay: Inhibition of haloperidol-induced catalepsy in rat at 30 mg/kg, po after 2 hrs; format: functional
Rattus norvegicus [18] = assay: Potentiation of L-dopa-induced rotational behavior in unilaterally 6-hydroxydopamine-lesioned po dosed Wistar rat assessed as minimal effective dose pretreated 30 mins before L-dopa challenge measured over 5 hrs; format: functional; conditions: read-out: MED
[19] = Solubility at pH 3.7; format: physicochemical; conditions: buffer
[20] = AUC ((0 to 24 hrs)) in dog at 30 mg/kg, po; format: ADME, organism-based, Canis lupus familiaris; design: time < 24 hr, dose 30 mg/kg, route oral; conditions: plasma
[21] = AUC ((0 to 24 hrs)) in mouse at 300 mg/kg, po; format: ADME, organism-based; design: time < 24 hr, dose 300 mg/kg, route oral; conditions: plasma
Rattus norvegicus [22] = assay: Potentiation of L-dopa-induced rotational behavior in unilaterally 6-hydroxydopamine-lesioned po dosed Wistar rat pretreated 30 mins before L-dopa challenge measured over 5 hrs; format: functional, organism-based
Liver microsomes = assay: Induction of glutathione adducts formation in human liver microsomes; design: species or system Microsome
Rattus norvegicus [23] = assay: Inhibition of haloperidol-induced catalepsy in rat at 1 mg/kg, po; format: functional, organism-based; design: dose 1 mg/kg

Sequence of Adenosine receptor A2a (Rattus norvegicus, UniProt P30543) (P30543 whole entry): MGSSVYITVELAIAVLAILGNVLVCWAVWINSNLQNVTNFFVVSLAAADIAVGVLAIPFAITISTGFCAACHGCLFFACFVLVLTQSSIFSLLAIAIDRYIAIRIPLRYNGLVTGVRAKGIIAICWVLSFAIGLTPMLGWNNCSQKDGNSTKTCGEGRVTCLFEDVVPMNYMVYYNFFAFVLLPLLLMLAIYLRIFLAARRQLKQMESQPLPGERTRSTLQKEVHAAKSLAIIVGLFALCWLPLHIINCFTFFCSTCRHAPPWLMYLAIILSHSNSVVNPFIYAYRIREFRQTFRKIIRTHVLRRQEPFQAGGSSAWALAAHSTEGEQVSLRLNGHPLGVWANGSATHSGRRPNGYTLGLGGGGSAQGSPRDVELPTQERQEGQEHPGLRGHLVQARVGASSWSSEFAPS
T2 sequence (P08684 whole entry): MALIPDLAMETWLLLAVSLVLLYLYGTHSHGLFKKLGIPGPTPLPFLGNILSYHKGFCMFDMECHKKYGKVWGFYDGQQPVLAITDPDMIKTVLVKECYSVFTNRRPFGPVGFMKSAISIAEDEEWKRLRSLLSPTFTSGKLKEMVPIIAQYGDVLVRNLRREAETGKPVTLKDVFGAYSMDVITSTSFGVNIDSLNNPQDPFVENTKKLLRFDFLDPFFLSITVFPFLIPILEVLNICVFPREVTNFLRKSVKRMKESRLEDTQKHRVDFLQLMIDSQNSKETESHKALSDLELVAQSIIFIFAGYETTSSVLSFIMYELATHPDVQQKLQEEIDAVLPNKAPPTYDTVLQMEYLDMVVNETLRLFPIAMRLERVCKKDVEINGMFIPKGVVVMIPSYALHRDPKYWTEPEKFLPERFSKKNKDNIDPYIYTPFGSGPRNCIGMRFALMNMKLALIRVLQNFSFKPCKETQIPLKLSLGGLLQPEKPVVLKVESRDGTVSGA
T3 sequence (P29274 whole entry): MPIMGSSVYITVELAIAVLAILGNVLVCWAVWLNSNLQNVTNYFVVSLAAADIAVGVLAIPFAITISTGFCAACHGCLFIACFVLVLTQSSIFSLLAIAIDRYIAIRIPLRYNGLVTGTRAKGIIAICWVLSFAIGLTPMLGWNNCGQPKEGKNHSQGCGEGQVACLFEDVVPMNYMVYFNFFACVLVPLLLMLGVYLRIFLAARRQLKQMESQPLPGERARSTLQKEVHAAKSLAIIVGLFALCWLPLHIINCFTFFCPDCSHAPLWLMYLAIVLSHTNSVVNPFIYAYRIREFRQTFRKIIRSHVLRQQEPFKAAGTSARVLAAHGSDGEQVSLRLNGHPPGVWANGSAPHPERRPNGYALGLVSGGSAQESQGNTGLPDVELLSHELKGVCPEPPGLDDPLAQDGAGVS
Sequence of Voltage-gated inwardly rectifying potassium channel KCNH2 (Q12809 whole entry): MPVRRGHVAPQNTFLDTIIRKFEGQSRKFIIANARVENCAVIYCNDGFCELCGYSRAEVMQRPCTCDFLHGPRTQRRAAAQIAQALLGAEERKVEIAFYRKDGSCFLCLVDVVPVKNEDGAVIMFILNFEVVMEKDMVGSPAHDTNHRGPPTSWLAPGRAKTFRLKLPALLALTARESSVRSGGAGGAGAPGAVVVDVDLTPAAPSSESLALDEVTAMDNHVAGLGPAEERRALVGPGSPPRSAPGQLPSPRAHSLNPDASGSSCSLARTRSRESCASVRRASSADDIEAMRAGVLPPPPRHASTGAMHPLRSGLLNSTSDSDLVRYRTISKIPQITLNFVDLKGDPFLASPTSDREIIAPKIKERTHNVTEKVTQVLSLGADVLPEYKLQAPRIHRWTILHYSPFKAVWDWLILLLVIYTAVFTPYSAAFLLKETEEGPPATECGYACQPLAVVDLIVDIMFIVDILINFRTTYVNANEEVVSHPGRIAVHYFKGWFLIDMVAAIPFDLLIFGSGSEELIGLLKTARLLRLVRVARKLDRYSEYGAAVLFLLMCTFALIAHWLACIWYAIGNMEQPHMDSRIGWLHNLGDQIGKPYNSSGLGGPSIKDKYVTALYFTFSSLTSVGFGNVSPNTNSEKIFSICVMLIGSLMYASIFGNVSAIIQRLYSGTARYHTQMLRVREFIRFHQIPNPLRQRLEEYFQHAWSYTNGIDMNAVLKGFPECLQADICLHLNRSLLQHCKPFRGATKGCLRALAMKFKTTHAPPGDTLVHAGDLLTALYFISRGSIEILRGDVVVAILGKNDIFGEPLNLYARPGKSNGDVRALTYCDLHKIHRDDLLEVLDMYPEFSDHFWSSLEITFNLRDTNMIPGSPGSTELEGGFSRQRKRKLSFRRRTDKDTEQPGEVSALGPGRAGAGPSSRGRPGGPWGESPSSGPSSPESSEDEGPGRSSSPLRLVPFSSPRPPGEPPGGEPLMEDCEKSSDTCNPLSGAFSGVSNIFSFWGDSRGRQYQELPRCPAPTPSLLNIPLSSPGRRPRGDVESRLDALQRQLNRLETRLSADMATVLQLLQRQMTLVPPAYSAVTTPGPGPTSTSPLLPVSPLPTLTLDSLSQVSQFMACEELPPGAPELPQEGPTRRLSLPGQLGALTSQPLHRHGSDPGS

Row | Compound | Ratio Ki (Homo sapiens) | Ki (Adenosine receptor A1) | IC50 (Cytochrome P450 3A4 [1]) | Ki (Adenosine receptor A2a [2]) | CLint scaled [3] | CLint scaled [4] | Ki (Adenosine receptor A2a [7]) | IC50 (Adenosine receptor A2a [13]) | minimal effective dose (Rattus norvegicus [8]) | concentration at 2 h [9] | concentration at 2 h [10] | Activity (Rattus norvegicus [12]) | logD [15] | further results
1 | CC(=O)Nc1cc(-c2ccccc2)nc(-n2nc(C)cc2C)n1 | 3.3 | 0.29 µM | 43 µM | – | – | – | – | – | – | – | – | – | – | –
2 | CC(=O)Nc1cc(-c2cccc(N3CCCOCC3)n2)nc(-n2nc(C)cc2C)n1 | 121 | 0.28 µM | > 20 µM | 0.0023 µM | 1000 mL/min/kg | 94 mL/min/kg | – | – | – | – | – | – | – | –
3 | CC(=O)Nc1cc(-c2cccc(N3CCOCC3)n2)nc(-n2nc(C)cc2C)n1 | 155 | 0.13 µM | > 20 µM | 0.00083 µM | 25 mL/min/kg | 3 mL/min/kg | 0.01 µM | 0.013 µM | 3 mg/kg | 170 ng/g | 150 ng/mL | 55% | – | Activity [5]: Not Active; solubility [6]: 140 µg/mL (≈ 356 µM); pKa [11]: 2.9; Activity (Cytochrome P450 3A4 [14]): Not Active
4 | COc1cc(OC)cc(-c2cc(NC(C)=O)nc(-n3nc(C)cc3C)n2)c1 | 116 | 0.022 µM | 0.38 µM | 0.00019 µM | 110 mL/min/kg | 9.3 mL/min/kg | 0.003 µM | 0.017 µM | 1 mg/kg | 1150 ng/g | 1330 ng/mL | 49% | 3.2 | solubility [6]: < 20 µg/mL; Papp A→B [16]: 2.4 ×10⁻⁶ cm/s
5 | COc1cccc(-c2cc(NC(C)=O)nc(-n3nc(C)cc3C)n2)c1F | 187 | 0.11 µM | > 20 µM | 0.0006 µM | 360 mL/min/kg | 36 mL/min/kg | 0.012 µM | 0.032 µM | – | – | – | – | 2 | solubility [6]: 170 µg/mL (≈ 478 µM); Papp A→B [16]: 26 ×10⁻⁶ cm/s; Activity (Rattus norvegicus [17]): inactive
6 | CC(=O)Nc1cc(-c2ccnc(N3CCOCC3)c2)nc(-n2nc(C)cc2C)n1 | 48 | 0.58 µM | – | 0.012 µM | – | – | – | – | – | – | – | – | – | –
7 | CCC(=O)Nc1cc(-c2cncc(OC)c2)nc(-n2nc(C)cc2C)n1 | 39 | 0.07 µM | 17 µM | 0.0018 µM | 110 mL/min/kg | 29 mL/min/kg | 0.021 µM | 0.031 µM | 1 mg/kg | 1380 ng/g | 860 ng/mL | 69% | 2.8 | pKa [11]: 3.6
8 | COC1CCN(c2cccc(-c3cc(NC(C)=O)nc(-n4nc(C)cc4C)n3)n2)CC1 | – | 0.085 µM | – | 0.00044 µM | 540 mL/min/kg | 41 mL/min/kg | – | – | 1 mg/kg | – | – | 88% | – | minimal effective dose (Rattus norvegicus [18]): 3 mg/kg; solubility [19]: 1000 µg/mL (≈ 2370 µM); AUC(0-t) at 24 h [20]: 3400 ng·h/mL; AUC(0-t) at 24 h [21]: 25700 ng·h/mL; Activity (Rattus norvegicus [22]): Dose-dependent effect; Activity (Liver microsomes): Not Active; Activity (Rattus norvegicus [23]): Active

Further lines, with some results ahead:

Row | Ratio Ki (Homo sapiens) | Ki (Adenosine receptor A1) | IC50 (Cytochrome P450 3A4 [1]) | Ki (Adenosine receptor A2a [2]) | CLint scaled [3] | CLint scaled [4] | Ki (Adenosine receptor A2a [7]) | IC50 (Adenosine receptor A2a [13]) | Compound | minimal effective dose (Rattus norvegicus [8]) | concentration at 2 h [9] | concentration at 2 h [10] | Activity (Rattus norvegicus [12]) | logD [15] | further results
9 | – | 0.11 µM | – | 0.0031 µM | 43 mL/min/kg | 3 mL/min/kg | – | – | COCCOc1cncc(-c2cc(NC(C)=O)nc(-n3nc(C)cc3C)n2)c1 | – | – | – | – | – | –
10 | 67 | 0.195 µM | 18 µM | 0.0029 µM | 140 mL/min/kg | 41 mL/min/kg | 0.032 µM | 0.064 µM | CC(=O)Nc1cc(-c2cncc(O)c2)nc(-n2nc(C)cc2C)n1 | – | 154 ng/g | 264 ng/mL | – | 2.4 | Activity (Rattus norvegicus [17]): inactive
11 | 106 | 0.78 µM | 16 µM | 0.0074 µM | 93 mL/min/kg | 16 mL/min/kg | 0.068 µM | 0.167 µM | COC(=O)Nc1cc(-c2cncc(OC)c2)nc(-n2nc(C)cc2C)n1 | 10 mg/kg | – | – | 46% | – | –
12 | 79 | 0.62 µM | 20 µM | 0.0078 µM | 59 mL/min/kg | 38 mL/min/kg | 0.082 µM | 0.196 µM | CCOC(=O)Nc1cc(-c2cncc(OC)c2)nc(-n2nc(C)cc2C)n1 | – | – | – | – | – | Activity (Rattus norvegicus [17]): inactive
13 | 18 | 2.1 µM | > 20 µM | 0.12 µM | – | – | – | – | CC(=O)Nc1cc(-c2cccnc2)nc(-n2nc(C)cc2C)n1 | – | – | – | – | – | –
